PubChem BioAssay (NCI)
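1) Cells in 96-well plates. 2) Compound, 48 h, 5 concentrations. 3) Linear interpolation between surrounding doses. 4) Unreached endpoint = highest concentration. GI50 = concentration required for 50% inhibition of growth. TGI is the concentration that stops growth completely.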

What was measured:
Assay in all cases: growth of human tumour cells (NCI), 48 h
RXF 393 renal = tested on: RXF 393 renal
M14 melanoma = tested on: M14 melanoma
SNB-75 CNS = tested on: SNB-75 CNS
CCRF-CEM leukemia = tested on: CCRF-CEM leukemia
SW-620 colon = tested on: SW-620 colon
UACC-257 melanoma = tested on: UACC-257 melanoma
SF-295 CNS = tested on: SF-295 CNS
786-0 renal = tested on: 786-0 renal
DU-145 prostate = tested on: DU-145 prostate
BT-549 breast = tested on: BT-549 breast

Row | SMILES | TGI (RXF 393 renal) | TGI (M14 melanoma) | TGI (SNB-75 CNS) | TGI (CCRF-CEM leukemia) | TGI (SW-620 colon) | TGI (UACC-257 melanoma) | TGI (SF-295 CNS) | TGI (786-0 renal) | GI50 (RXF 393 renal) | GI50 (M14 melanoma) | GI50 (SNB-75 CNS) | GI50 (SW-620 colon) | GI50 (UACC-257 melanoma) | GI50 (SF-295 CNS) | GI50 (786-0 renal) | GI50 (DU-145 prostate) | TGI (DU-145 prostate) | GI50 (CCRF-CEM leukemia) | GI50 (BT-549 breast) | TGI (BT-549 breast)
1 | O=C1CCC2(c3ccc(F)cc3)Nc3cc(Cl)ccc3N12 (stereo unspecified) | > 100 µM | > 100 µM | > 100 µM | > 100 µM | > 100 µM | > 100 µM | > 100 µM | > 100 µM |  |  |  |  |  |  |  |  |  |  |  | 
2 | COc1ccc(/C=C/CN(C)CCc2ccccc2)cc1OC | > 100 µM |  | > 100 µM |  | > 100 µM | > 100 µM | > 100 µM | > 100 µM |  |  |  |  |  |  |  |  |  |  |  | 
3 | O=C(O)CNS(=O)(=O)c1ccc(NCc2ccccc2)cc1 | > 100 µM | > 100 µM | > 100 µM | > 100 µM | > 100 µM | > 100 µM |  | > 100 µM |  |  |  |  |  |  |  |  |  |  |  | 
4 | CSC(C1c2ccccc2N(c2ccc(C)cc2)C2=NC(=O)N(C)C(=O)C21Cl)S(=O)(=O)c1ccc(C)cc1 (stereo unspecified) |  | 72.3 µM | 60 µM | 38 µM | 85.9 µM | 57.2 µM | 62.4 µM | 38.4 µM |  |  |  |  |  |  |  |  |  |  |  | 
5 | COC(=O)/C(=N/NC(=O)C[N+](C)(C)C)C(C(=O)OC)C(=O)C(=O)Nc1ccc(F)cc1 (stereo unspecified) | > 100 µM | > 100 µM | > 100 µM | > 100 µM | > 100 µM | > 100 µM | > 100 µM | > 100 µM |  |  |  |  |  |  |  |  |  |  |  | 
6 | CCC[CH2][Sn]([CH2]CCC)([O]C(=O)c1cccnc1SC)[O]C(=O)c1cccnc1SC | 1.12 µM | 2.29 µM | 2.02 µM |  | 1.25 µM | 2.14 µM | 2.67 µM | 1.98 µM | 0.21 µM | 1.04 µM | 0.673 µM | 0.248 µM | 0.922 µM | 1.38 µM | 0.67 µM |  |  |  |  | 
7 | CCCCN=C(NC#N)NCCCC | > 100 µM | > 100 µM | > 100 µM |  | 42 µM | > 100 µM | > 100 µM | > 100 µM |  |  |  |  |  |  |  |  |  |  |  | 
8 | Nc1cc(N)c2nc(-c3ccccc3)c(Nc3ccc(Cl)c(Cl)c3)nc2c1 | 31.2 µM | 60 µM |  |  | 51.8 µM | 28.2 µM | 27.9 µM | 37 µM | 6.23 µM | 14.7 µM |  | 13.3 µM | 11.4 µM | 12.4 µM | 14.7 µM | 16.7 µM | 32.6 µM |  |  | 
9 | COC(=O)C1Cc2c(n(Cc3ccccc3)c3ccccc23)C(CCC(=O)O)N1C(C)C (stereo unspecified) |  | > 100 µM | > 100 µM | > 100 µM | > 100 µM | > 100 µM | > 100 µM | > 100 µM |  |  |  |  |  |  |  |  |  |  |  | 
10 | CCOC(=O)[C]1([Bi]([CH3])[CH3])N=NC(C(=O)OC)=C1C(=O)OC (stereo unspecified) |  | > 10 µM | 29.9 µM | 37.6 µM | 32.8 µM |  | > 100 µM | 33.2 µM |  | > 10 µM | 15.6 µM | 16.6 µM |  | > 100 µM | 18.8 µM |  |  | 11.3 µM |  | 
11 | O=c1c2cc([N+](=O)[O-])ccc2sc2ccsc12 | > 100 µM | > 100 µM | > 100 µM | > 100 µM | > 100 µM | > 100 µM | > 100 µM | > 100 µM |  |  |  |  |  |  |  |  |  |  |  | 
12 | COC12C=C(C)C(CC1)CC2C(=O)O (stereo unspecified) | > 100 µM | > 100 µM | > 100 µM | > 100 µM | > 100 µM | > 100 µM | > 100 µM | > 100 µM |  |  |  |  |  |  |  |  |  |  |  | 
13 | CC(=O)CNC(=O)OC(C)(C)C | > 100 µM | > 100 µM | > 100 µM | > 100 µM | > 100 µM | > 100 µM | > 100 µM | > 100 µM |  |  |  |  |  |  |  |  |  |  |  | 
14 | O=C(/C=C/c1c(O)ccc2ccccc12)c1cccc(O)c1 | > 100 µM | > 100 µM | > 100 µM | > 100 µM | > 100 µM | > 100 µM | > 100 µM | > 100 µM |  |  |  |  |  |  |  |  |  |  |  | 
15 | OCC(O)CC[CH2][Sn]([Br])([c]1ccccc1)[c]1ccccc1 (stereo unspecified) | > 100 µM | > 100 µM | > 100 µM | > 100 µM | > 100 µM | > 100 µM | > 100 µM | > 100 µM | > 100 µM | > 100 µM | > 100 µM | > 100 µM | > 100 µM | > 100 µM | > 100 µM |  |  | > 100 µM |  | 
16 | CC[C@]1(O)C[C@@H]2CN(CCc3c([nH]c4ccccc34)[C@@](C(=O)OC)(c3cc4c(cc3OC)N(C)[C@H]3[C@@](O)(C(=O)OC)[C@H](OC(C)=O)[C@]5(CC)C=CCN6CC[C@]43[C@@H]65)C2)C1 | 3.77 µM | 4.31 µM | 0.592 µM | > 49.3 µM | > 100 µM | 37.8 µM | 0.991 µM | 14.5 µM | < 0.01 µM | < 0.01 µM | < 0.01 µM | < 0.01 µM | 14.6 µM | < 0.01 µM | < 0.01 µM |  |  | < 0.01 µM | < 0.01 µM | 8.4 µM
